In experiment [1] the target is T1, CRTH2 (Homo sapiens (Human), UniProt Q9Y5Y4). The experiment is described as follows: Radioligand binding assay ([3H]PGD2 displacement, hCRTH2 HEK293 (EBNA) cell membranes). Conditions: 1.5 nM [3H]PGD2, 10 μg hCRTH2 HEK293 (EBNA) membrane protein, 60 min room temperature; test concentration not given. From the text: Human CRTH2 cDNA was amplified by PCR using a human urinary bladder cDNA library as a template and specific primers containing HindIII and BamHI restriction sites for cloning into the pCEP4 vector (Invitrogen). The vector construction is described in detail in Sawyer et al., Br. J. Pharmocol 2002, 137, 1163-72. The nucleotide sequence of the cloned cDNA was identical the previously reported hCRTH2 sequence (Nagata et al, 1999, J. Immunol. 162, 1278-1286).
HEK293 (EBNA) cells were transfected with the pCEP4-hCRTH2 construct using the calcium phosphate technique. Cells were maintained in culture at 37° C. in an atmosphere of 5% CO2 in Dulbecco's modified Eagle's F12 medium (Invitrogen), containing 10% heat-inactivated foetal calf serum (TerraCell International, Canada), 2 mM Glutamine, 100 units/ml of penicillin and 100 μg/ml streptomycin (Invitrogen). 48 hours after the transfection, cells were grown in presence of 300 μg/ml of Hygromycin B (Invitrogen) for 4 weeks and antibiotic resistant cells were amplified for cell membrane preparation.
Adherent HEK293 (EBNA) cells expressing hCRTH2 were cultured in 225 cm^2 cell culture flasks (Corning, USA) in 30 ml of medium. After two rinses of phosphate buffered saline (PBS), cells were harvested in 10 ml of PBS containing 1 mM EDTA, centrifuged at 500×g for 5 min at 4° C. and frozen at −80° C. The pellet was re-suspended in 50 mM Tris-HCl, pH 7.4, 2 mM EDTA, 250 mM Sucrose, containing protease inhibitor cocktail tablets, (Complete EDTA-free, Roche, Germany) and incubated 30 min at 4° C. Cells were disrupted by nitrogen cavitation (Parr Instruments, USA) at 4° C. (800 p.s.i. for 30 min), and centrifuged at 500×g for 10 min at 4° C. Pellet containing nuclei and cellular debris was discarded and supernatant was centrifuged 60 min at 4° C. at 45000×g. Membrane pellet was re-suspended in storage buffer (10 mM HEPES/KOH pH 7.4, 1 mM EDTA, 250 mM sucrose, protease inhibitor cocktail tablets) using Dounce homogenization and frozen in liquid nitrogen, and stored at −80° C.
(§1) The inhibitory activity can be investigated by a radioligand binding assay (Sawyer et al., Br. J. Pharmocol 2002, 137, 1163-72). The radioligand binding assay was performed at room temperature in binding buffer (10 mM HEPES/KOH pH […], with protease inhibitor cocktail tablets), containing 1.5 nM [^3H]PGD2 (Amersham, 156 Cie/mmol), and 10 μg of hCRTH2 HEK293 (EBNA) cell membrane protein in a final volume of 100 μl in 96 well plates (Corning, USA). Non-specific binding was determined in the presence of 1 μM PGD2 (Cayman, USA). Competing pyrazine sulfonamides were diluted in dimethylsulphoxide so that the total volume of dimethylsulfoxide was kept constant at 1% dimethylsulphoxide (Me2SO). 10 μl of the pyrazine sulfonamides were added. Incubation (60 min at room temperature) was terminated by rapid filtration through 96 wells hydrophobic GF/C Unifilter plates (Whatman, USA). Filters were washed twice with 250 μl of Tris-HCl pH 7.4, 10 mM MnCl2, and residual radioligand bound to the filters was mixed to 100 μl of liquid scintillation cocktail (Optiphase Supermix, Perkin Elmer, USA) and binding activity was determined by counting residual radioligand using a 1450 Micro-beta scintillation counter (Wallac, UK).

Experiment [2] has as its target T1, CRTH2. The experiment is described as follows: Determination of Ki, equilibrium competition binding against [3H]PGD2. The settings on record: competition against [3H]PGD2; average of at least three independent dose response experiments; Ki calculated from IC50. On the procedure:
as §1
Ki values were determined by equilibrium competition binding experiments against [^3H]PGD2. Ki values were calculated from the formula below and represent the average of at least three independent dose response experiments. The Ki values give the ligand concentrations necessary to inhibit 50% of the binding of 3[H]PGD2 to CRTH2. Ki=IC50/(1+[Concentration of Ligand]/Kd)]
All experiments were performed in 96 well plates, in a final volume of 100 μl according to the above described filtration assay. The concentration of membranes and 3[H]PGD2, as well as the positive and negative controls were identical to the conditions described above.

One may read the Ki as the equilibrium dissociation constant of an inhibitor or competing ligand from its target.

T1 sequence (Q9Y5Y4 whole entry): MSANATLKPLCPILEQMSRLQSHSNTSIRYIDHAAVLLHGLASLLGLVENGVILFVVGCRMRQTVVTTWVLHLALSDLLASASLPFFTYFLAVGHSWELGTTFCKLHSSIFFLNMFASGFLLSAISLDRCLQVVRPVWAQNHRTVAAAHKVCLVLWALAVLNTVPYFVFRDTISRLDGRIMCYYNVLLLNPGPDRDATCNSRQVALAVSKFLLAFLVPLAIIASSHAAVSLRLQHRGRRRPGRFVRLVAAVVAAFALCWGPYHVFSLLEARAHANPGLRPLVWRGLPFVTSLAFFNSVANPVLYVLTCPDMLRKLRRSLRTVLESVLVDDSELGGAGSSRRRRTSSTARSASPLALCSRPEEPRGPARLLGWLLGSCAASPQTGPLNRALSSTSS

Regarding `Cc1ccc(S(=O)(=O)Nc2nccnc2-c2ccc(CN(C)c3ccc(OC(F)(F)F)cc3)cc2)cc1` [Compound 14, 4-methyl-N-{3-[4-({methyl[4-(trifluoromethoxy)phenyl]amino}-methyl)phenyl]pyrazin-2-yl}benzenesulfonamide], the “Inhibition hCRTH2 [%]” value at CRTH2 [1] turned out to be 53.0%. The Ki at CRTH2 [2] was 5850 nM.

For `O=S(=O)(Nc1nccnc1-c1ccc(Cn2ccc3cc(F)ccc32)cc1)c1ccccc1Cl` [Compound 41, 2-Chloro-N-{3-[4-(5-fluoro-indol-1-ylmethyl)-phenyl]-pyrazin-2-yl}-benzenesulfonamide], at CRTH2 [2], the Ki was 3900 nM.

As to `CN(Cc1ccc(-c2nccnc2NS(=O)(=O)c2ccccc2Cl)cc1)c1ccccc1` [Compound 4, 2-chloro-N-[3-(4-{[methyl(phenyl)amino]methyl}phenyl)pyrazin-2-yl]-benzenesulfonamide], the “Inhibition hCRTH2 [%]” value at CRTH2 [1] is on record as 84.5%. Moreover, the inhibition constant (Ki) on CRTH2 [2] is 1570 nM.

For the compound `COc1cccc(COCc2ccc(-c3nccnc3NS(=O)(=O)c3ccccc3C(F)(F)F)cc2)c1` [Compound 10, N-[3-(4-{[(3-methoxybenzyl)oxy]methyl}phenyl)pyrazin-2-yl]-2-(trifluoromethyl)benzenesulfonamide], the “Inhibition hCRTH2 [%]” value at CRTH2 [1] was found to be 72.0%. In addition, the Ki on CRTH2 [2] is 1400 nM.

As for `Cc1cc2ccccc2n1Cc1ccc(-c2nccnc2NS(=O)(=O)c2ccccc2Cl)cc1` [Compound 43, 2-Chloro-N-{3-[4-(2-methyl-indol-1-ylmethyl)-phenyl]-pyrazin-2-yl}-benzenesulfonamide], the Ki on CRTH2 [2] was 4110 nM.

Take `CN(Cc1ccc(-c2nccnc2NS(=O)(=O)c2cccs2)cc1)c1ccc(Cl)cc1` [Compound 12, N-[3-(4-{[(4-chlorophenyl)(methyl)amino]methyl}phenyl)pyrazin-2-yl]-thiophene-2-sulfonamide]: at CRTH2 [1], the “Inhibition hCRTH2 [%]” value is given as 65.0%. The inhibitory constant (Ki) on CRTH2 [2] is 8430 nM.

As to `CN(Cc1ccc(-c2nccnc2NS(=O)(=O)c2ccccc2C(F)(F)F)cc1)c1ccc(F)cc1` [Compound 17, N-[3-(4-{[(4-Fluoro-phenyl)-methyl-amino]-methyl}-phenyl)-pyrazin-2-yl]-2-trifluoromethyl-benzenesulfonamide], the Ki at CRTH2 [2] was 380 nM.

In the case of `CN(Cc1ccc(-c2nccnc2NS(=O)(=O)c2ccccc2C(F)(F)F)cc1)c1ccccc1` [Compound 18, N-(3-{4-[(Methyl-phenyl-amino)-methyl]-phenyl}-pyrazin-2-yl)-2-trifluoromethyl-benzenesulfonamide], on CRTH2 [2], the inhibition constant Ki was 400 nM.

Consider `O=S(=O)(Nc1nccnc1-c1ccc(Cn2ccc3ccccc32)cc1)c1ccccc1Cl` [Compound 6, 2-chloro-N-{3-[4-(1H-indol-1-ylmethyl)phenyl]pyrazin-2-yl}benzene-sulfonamide], for which the “Inhibition hCRTH2 [%]” value at CRTH2 [1] was found to be 81.5%. At CRTH2 [2], the inhibition constant (Ki) is 2120 nM.

With `CCc1nc2ccccc2n1Cc1ccc(-c2nccnc2NS(=O)(=O)c2ccccc2Cl)cc1` [Compound 8, 2-chloro-N-(3-{4-[(2-ethyl-1H-benzimidazol-1-yl)methyl]phenyl}pyrazin-2-yl)benzenesulfonamide], at CRTH2 [1], the “Inhibition hCRTH2 [%]” value is recorded as 79.0%. Also, the inhibitory constant (Ki) at CRTH2 [2] was 1420 nM.

`CN(Cc1ccc(-c2nccnc2NS(=O)(=O)c2ccccc2Cl)cc1)c1ccccc1F` [Compound 42, 2-Chloro-N-[3-(4-{[(2-fluoro-phenyl)-methyl-amino]-methyl}-phenyl)-pyrazin-2-yl]-benzenesulfonamide]: the Ki on CRTH2 [2] is 3900 nM.

With `O=S(=O)(Nc1nccnc1-c1ccc(COc2ccc3ccccc3c2)cc1)c1ccccc1Cl` [Compound 5, 2-chloro-N-(3-{4-[(2-naphthyloxy)methyl]phenyl}pyrazin-2-yl)benzene-sulfonamide], the “Inhibition hCRTH2 [%]” value on CRTH2 [1] was found to be 82.0%. The inhibition constant Ki at CRTH2 [2] is 2320 nM.

Regarding `CCN(Cc1ccc(-c2nccnc2NS(=O)(=O)c2ccccc2Cl)cc1)c1ccccn1` [Compound 45, 2-Chloro-N-(3-{4-[(ethyl-pyridin-2-yl-amino)-methyl]-phenyl}-pyrazin-2-yl)-benzenesulfonamide], the inhibition constant (Ki) at CRTH2 [2] was 4510 nM.

(Values after patent US8796280B2, “2,3-disubstituted pyrazinesulfonamides as CRTH2 inhibitors” (Merck Serono, S.A., priority 2005, dated 2014).)
